From patent US11780845B2 (Relay Therapeutics, Inc., priority 2019, dated 2023)

Legend:
FGFR2 = FGFR2 (Homo sapiens (Human), UniProt P21802); assay: FGFR2 Biochemical Caliper Assay
Protocol: Compounds of the present invention were also tested in a FGFR2 Biochemical Caliper Assay. Compounds were prepared in 10 mM DMSO solution and serially diluted into 11 concentrations by 3-fold dilution. […] 5 uL of ATP solution (100 uM) was added to start the reaction and the plate was incubated for 90 minutes, then 70 uL of stopping buffer (0.5M EDTA) was added to terminate the reaction. Each well was analyzed using EZ reader.

SNU16 cells = assay: SNU16 Cancer Cell Line Proliferation Assay; assay type: cell-based; conditions: Homo sapiens; SNU-16 cells
Protocol: Compounds of the present invention were also tested in a SNU16 Cancer Cell Line Proliferation Assay, Test compounds were prepared in a 10 mM DMSO stock solution. 45 uL of stock solution was transferred to a 384 well plate, and a 3-fold 11-point dolution was performed. SNU16 cells in a 384 well cell culture plate were seeded and incubated at 37 degrees for 24 hours. 40 nL of each concentration of compound was transferred from the compound plate to a corresponding well in the cell culture plate by Echo550 liquid handler. The plates were incubated for 96 hours, then equilibrated to room temperature for 15 minutes. 20 uL of CellTiter Glo reagent is added into each well, then the plate was shaken gently for 30 minutes at room temperature. Chemiluminescence was then read on an EnVision reader.

FGFR2, sequence (P21802 22-821): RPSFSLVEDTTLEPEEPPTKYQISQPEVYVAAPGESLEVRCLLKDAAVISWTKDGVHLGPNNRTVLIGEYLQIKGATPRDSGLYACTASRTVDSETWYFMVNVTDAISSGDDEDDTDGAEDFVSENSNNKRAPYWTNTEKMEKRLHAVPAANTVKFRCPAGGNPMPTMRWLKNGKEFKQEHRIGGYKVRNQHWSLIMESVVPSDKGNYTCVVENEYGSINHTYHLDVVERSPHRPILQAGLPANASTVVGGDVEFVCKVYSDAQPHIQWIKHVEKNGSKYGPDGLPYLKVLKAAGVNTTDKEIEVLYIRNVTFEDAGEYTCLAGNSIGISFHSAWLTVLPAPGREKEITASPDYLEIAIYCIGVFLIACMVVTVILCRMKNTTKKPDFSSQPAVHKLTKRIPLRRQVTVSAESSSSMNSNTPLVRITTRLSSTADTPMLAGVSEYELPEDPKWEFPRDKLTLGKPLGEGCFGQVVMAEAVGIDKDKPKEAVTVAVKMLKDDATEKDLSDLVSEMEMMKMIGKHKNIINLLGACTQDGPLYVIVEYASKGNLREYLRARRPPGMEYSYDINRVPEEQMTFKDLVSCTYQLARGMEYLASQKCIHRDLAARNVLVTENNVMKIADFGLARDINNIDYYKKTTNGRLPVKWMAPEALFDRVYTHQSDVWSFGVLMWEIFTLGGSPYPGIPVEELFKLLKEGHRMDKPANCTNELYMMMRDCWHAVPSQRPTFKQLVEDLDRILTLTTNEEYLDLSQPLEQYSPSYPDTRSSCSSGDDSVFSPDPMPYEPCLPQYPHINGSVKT

SMILES | IC50 (FGFR2) | IC50 (SNU16 cells)
C=CC(=O)Nc1ccc(-c2c(C3=CCC(C(=O)NC)CC3)c3c(N)ncnc3n2C)cc1 (centres unmarked) [Example 148] | < 0.1 µM | ≤ 0.1 µM
C=C(C)C(=O)Nc1ccc(-c2c(-c3ccc(S(=O)(=O)C4CCCC4)cc3)c3c(N)ncnc3n2C)cc1 [Example 150] | < 0.1 µM | ≤ 0.1 µM
C=C(C)C(=O)Nc1ccc(-c2c(-c3ccc(C(=O)N(C)C)cc3)c3c(N)ncnc3n2C)cc1 [Example 152] | 0.25 to 1 µM | 0.25 to 1 µM
C=C(C)C(=O)Nc1ccc(-c2c(-c3ccc(C(=O)N4CC5CCCC5C4)cc3)c3c(N)ncnc3n2C)cc1 (centres unmarked) [Example 154] | 0.1 to 0.25 µM | ≤ 0.1 µM
CC#CC(=O)Nc1ccc(-c2c(-c3ccc(C(=O)N4CCCC4)cc3)c3c(N)ncnc3n2C)cc1 [Example 155] | < 0.1 µM | ≤ 0.1 µM
C=C(C)C(=O)Nc1ccc(-c2c(-c3ccc(C(=O)N4CCCC4)c(OC)c3)c3c(N)ncnc3n2C)cc1 [Example 156] | 0.25 to 1 µM | 0.1 to 0.25 µM
C=C(C)C(=O)Nc1ccc(-c2c(-c3ccc(C(=O)N4CCC(O)C4)cc3)c3c(N)ncnc3n2C)cc1 (centres unmarked) [Example 157] | 0.25 to 1 µM | 0.25 to 1 µM
C=C(C)C(=O)Nc1ccc(-c2c(-c3ccc([S+]([O-])C4CC4)cc3)c3c(N)ncnc3n2C)cc1 (centres unmarked) [Example 160] | 0.25 to 1 µM | 0.25 to 1 µM
C=CC(=O)Nc1ccc(-c2c(-c3ccc(C(=O)N4CCCC4)c(OC)c3)c3c(N)ncnc3n2C)cc1 [Example 161] | < 0.1 µM | ≤ 0.1 µM
C=C(C)C(=O)Nc1ccc(-c2c(-c3cncc(N4CCOCC4)c3)c3c(N)ncnc3n2C)cc1 [Example 166] | 1 to 100 µM | 0.25 to 1 µM
C=C(C)C(=O)Nc1ccc(-c2c(-c3ccc(Oc4cccc(F)c4)nc3)c3c(N)ncnc3n2C)cc1 [Example 167] | 1 to 100 µM | 0.1 to 0.25 µM
C=C(C)C(=O)Nc1ccc(-c2c(-c3ccc(Oc4cccc(C(F)(F)F)c4)nc3)c3c(N)ncnc3n2C)cc1 [Example 169] | 1 to 100 µM | 0.25 to 1 µM
C=CC(=O)Nc1ccc(-c2c(C3=CCC(NC(C)=O)CC3)c3c(N)ncnc3n2C)cc1 (centres unmarked) [Example 171] | 0.1 to 0.25 µM | 0.25 to 1 µM
C=CC(=O)Nc1ccc(-c2c(-c3ccc(OC4CCOC4)c(C)c3)c3c(N)ncnc3n2C)cc1 (centres unmarked) [Example 174] | < 0.1 µM | ≤ 0.1 µM
C=C(C)C(=O)Nc1ccc(-c2c(-c3ccc(C(=O)N4CCOCC4)cc3)c3c(N)ncnc3n2C)cc1 [Example 176] | 1 to 100 µM | 0.25 to 1 µM
C=C(C)C(=O)Nc1ccc(-c2c(-c3ccc4sc(C(=O)N(C)C)cc4c3)c3c(N)ncnc3n2C)cc1 [Example 180] | 0.25 to 1 µM | 0.1 to 0.25 µM
C=C(C)C(=O)Nc1ccc(-c2c(-c3ccc(N4CCCCC4=O)cc3)c3c(N)ncnc3n2C)cc1 [Example 186] | 1 to 100 µM | 0.25 to 1 µM
C=C(C)C(=O)Nc1ccc(-c2c(-c3ccc(CN4CCOCC4=O)cc3)c3c(N)ncnc3n2C)cc1 [Example 188] | 1 to 100 µM | 0.25 to 1 µM
C=C(C)C(=O)Nc1ccc(-c2c(-c3ccc(C(=O)N4CCCCC4C)cc3)c3c(N)ncnc3n2C)cc1 (centres unmarked) [Example 189] | < 0.1 µM | ≤ 0.1 µM
C=C(C)C(=O)Nc1ccc(-c2c(-c3ccc(C(=O)N4CCC(C)CC4)cc3)c3c(N)ncnc3n2C)cc1 [Example 190] | 1 to 100 µM | 0.25 to 1 µM
C=C(C)C(=O)Nc1ccc(-c2c(-c3ccc(N4CCNC4=O)cc3)c3c(N)ncnc3n2C)cc1 [Example 194] | 0.25 to 1 µM | 0.25 to 1 µM
C=C(C)C(=O)Nc1ccc(-c2c(C3CCN(C(=O)N4CCCC4)CC3)c3c(N)ncnc3n2C)cc1 [Example 197] | 1 to 100 µM | 0.25 to 1 µM
C=C(C)C(=O)Nc1ccc(-c2c(-c3ccc(-c4ccon4)cc3)c3c(N)ncnc3n2C)cc1 [Example 199] | 0.25 to 1 µM | 0.25 to 1 µM
C=C(C)C(=O)Nc1ccc(-c2c(C3=CCC(C(=O)NC)CC3)c3c(N)ncnc3n2C)cc1 (centres unmarked) [Example 201] | 1 to 100 µM | 0.25 to 1 µM
C=C(C)C(=O)Nc1ccc(-c2c(-c3ccc(OC4CCOC4)c(C)c3)c3c(N)ncnc3n2C)cc1 (centres unmarked) [Example 202] | 0.25 to 1 µM | 0.1 to 0.25 µM
CN(C)C/C=C/C(=O)Nc1ccc(-c2c(-c3ccc(C(=O)N4CCCC4)cc3)c3c(N)ncnc3n2C)cc1 [Example 206] | < 0.1 µM | 0.1 to 0.25 µM
C=C(C)C(=O)Nc1ccc(-c2c(-c3ccc4c(c3)CCCN4C)c3c(N)ncnc3n2C)cc1 [Example 207] | 0.25 to 1 µM | 0.25 to 1 µM
C=C(C)C(=O)Nc1c(F)cc(-c2c(-c3ccc(C(=O)N4CCCC4)cc3)c3c(N)ncnc3n2C)cc1F [Example 210] | 1 to 100 µM | 0.25 to 1 µM

SMILES | IC50 (FGFR2) | IC50 (SNU16 cells)
C=CC(=O)Nc1ccc(-c2c(-c3ccc4c(c3)CCCN4C)c3c(N)ncnc3n2C)cc1 [Example 211] | < 0.1 µM | ≤ 0.1 µM
C=C(C)C(=O)Nc1ccc(-c2c(-c3ccc(C(=O)NC4CCCC4)cc3)c3c(N)ncnc3n2C)cc1 [Example 212] | < 0.1 µM | ≤ 0.1 µM
C=CC(=O)Nc1ccc(-c2c(-c3ccc(C(=O)N4CCCC4)cc3)c3c(N)ncnc3n2C)c(F)c1 [Example 213] | < 0.1 µM | ≤ 0.1 µM
C=C(C)C(=O)Nc1ccc(-c2c(-c3ccc(C(=O)N4CCCC4)cc3)c3c(N)ncnc3n2C)cc1F [Example 215] | 0.25 to 1 µM | 0.25 to 1 µM
C=CC(=O)Nc1ccc(-c2c(-c3ccc(ON4CCCC4)cc3)c3c(N)ncnc3n2C)c(C)c1 [Example 216] | < 0.1 µM | ≤ 0.1 µM
C=CC(=O)Nc1ccc(-c2c(-c3ccc(C(=O)N4CCCC4)cc3)c3c(N)ncnc3n2C)cc1F [Example 217] | < 0.1 µM | ≤ 0.1 µM
C=CC(=O)Nc1c(F)cc(-c2c(-c3ccc(C(=O)N4CCCC4)cc3)c3c(N)ncnc3n2C)cc1F [Example 219] | < 0.1 µM | ≤ 0.1 µM
C=CC(=O)Nc1ccc(-c2c(-c3ccc(C(=O)N4CCCC4)cc3)c3c(N)ncnc3n2C)cc1C [Example 220] | < 0.1 µM | ≤ 0.1 µM
C=C(C)C(=O)Nc1ccc(-c2c(-c3ccc(OC4CCCC4)cc3)c3c(N)ncnc3n2C)cc1 [Example 223] | < 0.1 µM | ≤ 0.1 µM
C=C(C)C(=O)Nc1ccc(-c2c(-c3ccc(NC(=O)C4CCCC4)cc3)c3c(N)ncnc3n2C)cc1 [Example 224] | < 0.1 µM | ≤ 0.1 µM
C=C(C)C(=O)Nc1ccc(-c2c(-c3ccc(C(=O)N(C)C4CCC4)cc3)c3c(N)ncnc3n2C)cc1 [Example 227] | 0.1 to 0.25 µM | 0.1 to 0.25 µM
C=C(C)C(=O)Nc1ccc(-c2c(-c3ccc(C(=O)N4CCC5CC5C4)cc3)c3c(N)ncnc3n2C)cc1 (centres unmarked) [Example 228] | < 0.1 µM | ≤ 0.1 µM
C=C(C)C(=O)Nc1ccc(-c2c(-c3ccc(C(=O)N4CCC5CC54)cc3)c3c(N)ncnc3n2C)cc1 (centres unmarked) [Example 229] | < 0.1 µM | ≤ 0.1 µM
C=C(C)C(=O)Nc1ccc(-c2c(-c3ccc(C(=O)N4CCCCCC4)cc3)c3c(N)ncnc3n2C)cc1 [Example 230] | < 0.1 µM | ≤ 0.1 µM
C=C(C)C(=O)Nc1ccc(-c2c(-c3ccc(C(=O)N(C)C4CCCC4)cc3)c3c(N)ncnc3n2C)cc1 [Example 233] | 0.1 to 0.25 µM | 0.1 to 0.25 µM
C=C(C)C(=O)Nc1ccc(-c2c(-c3ccc(C(=O)N4CCC5(CC5)C4)cc3)c3c(N)ncnc3n2C)cc1 [Example 234] | < 0.1 µM | ≤ 0.1 µM
C=C(C)C(=O)Nc1ccc(-c2c(-c3ccc(C(=O)N4CCCCC4=O)cc3)c3c(N)ncnc3n2C)cc1 [Example 236] | 0.1 to 0.25 µM | 0.1 to 0.25 µM
C=C(C)C(=O)Nc1ccc(-c2c(-c3ccc(C(=O)N4CC5CC5C4)cc3)c3c(N)ncnc3n2C)cc1 (centres unmarked) [Example 237] | 0.1 to 0.25 µM | 0.1 to 0.25 µM
C=C(C)C(=O)Nc1ccc(-c2c(-c3ccc(C(=O)N4CC5CCC4CO5)cc3)c3c(N)ncnc3n2C)cc1 (centres unmarked) [Example 238] | 0.25 to 1 µM | 0.25 to 1 µM
C=C(C)C(=O)Nc1ccc(-c2c(-c3ccc(C(=O)N4CCCC5CC54)cc3)c3c(N)ncnc3n2C)cc1 (centres unmarked) [Example 239] | < 0.1 µM | ≤ 0.1 µM
C=C(C)C(=O)Nc1ccc(-c2c(-c3ccc(C(=O)N4CC5(CCCC5)C4)cc3)c3c(N)ncnc3n2C)cc1 [Example 241] | 1 to 100 µM | 0.25 to 1 µM
C=C(C)C(=O)Nc1ccc(-c2c(-c3ccc(Cn4cccn4)cc3)c3c(N)ncnc3n2C)cc1 [Example 244] | 1 to 100 µM | 0.25 to 1 µM
C=C(C)C(=O)Nc1ccc(-c2c(-c3ccc(C(=O)N4CCC5(CCC5)C4)cc3)c3c(N)ncnc3n2C)cc1 [Example 245] | 0.25 to 1 µM | 0.25 to 1 µM
C=C(C)C(=O)Nc1ccc(-c2c(-c3ccc(C(=O)N4CC5CCCCC5C4)cc3)c3c(N)ncnc3n2C)cc1 (centres unmarked) [Example 246] | 0.25 to 1 µM | 0.1 to 0.25 µM
C=C(C)C(=O)Nc1ccc(-c2c(-c3ccc(C(=O)NCC(F)(F)F)cc3)c3c(N)ncnc3n2C)cc1 [Example 248] | < 0.1 µM | ≤ 0.1 µM
C=C(C)C(=O)Nc1ccc(-c2c(-c3ccc(C(=O)N4CC5COCC5C4)cc3)c3c(N)ncnc3n2C)cc1 (centres unmarked) [Example 249] | 0.25 to 1 µM | 0.25 to 1 µM
C=C(C)C(=O)Nc1ccc(-c2c(-c3ccc(C(=O)N4CCCC(C)C4)cc3)c3c(N)ncnc3n2C)cc1 (centres unmarked) [Example 255] | < 0.1 µM | ≤ 0.1 µM
